The term melting point denotes the temperature, or range, at which the solid turns liquid.

The structures appear in SMILES notation.

`Cc1cccc2c1nc(COc1ccc(Cl)cc1)n2CCC(C)C(=O)NNCc1ccccc1` (racemic) gave a melting point of 145 to 146 °C.

Regarding `CCCC[C@H](NC(=O)[C@H](CC(C)C)NC(=O)COc1ccc(OC)cc1)C(=O)CSCc1ccco1`, the melting point fell in the range of 86 to 88 °C.

Compound `NCCCOc1ccc(-c2ncc3c(=O)[nH][nH]c(=O)c3c2O)cc1` returned a melting point greater than 300 °C.

Compound `Clc1ccc(C2=Nc3cccnc3Nc3ccccc32)cc1` came in with a melting point of 203 to 204 °C.

With `CCC1C(C)=NN=C(c2ccc(O)c(O)c2)c2cc(O)c(O)cc21` (stereo unspecified), the melting point fell in the range of 250 to 251 °C.

As to `Cc1cc(=O)n(C)c2c1C(=O)CC(c1ccsc1)C2` (stereo unspecified), the melting point lay within 156 to 157 °C.

Take `COc1ccc2cc(N3CCC4(CCN(C)CC4)CC3)ccc2c1`: the melting point lay within 122 to 125 °C.

On to `C=CCN(CC=C)Cc1nc(-c2ncn3c2CN(C)C(=O)c2c(Cl)cccc2-3)no1`, for which the melting point lay within 126 to 130 °C.

Regarding `COc1cccc(CC(=O)O)c1OCCCc1cn(-c2ccc([N+](=O)[O-])cn2)nc1C(C)C`, the melting point is 161 to 162 °C.

`O=C(Cl)N1CCC(Oc2ccc(F)c(Cl)c2)C1` (stereo unspecified) registered a melting point of 63 to 65 °C.

As for `CC1(C)CC(=O)C2=C(C1)NC1=C(C(=O)CC(C)(C)C1)C2c1cc(Cl)cc(Cl)c1`, the melting point was 288 to 290 °C.

`Cc1ncccc1CC(=NC#N)NC(NC(=O)Cc1ccc(Cl)cc1)C(C)(C)C` (stereo unspecified) yielded a melting point of 118 to 119 °C.

Regarding `COc1ccc2c(c1)C13CCN(C#N)C(C2)C1CCC(=O)C3` (stereo unspecified), the melting point is 211 to 214 °C.

Consider `Cc1nccn1C(=O)NC1CCCCC1`, for which the melting point is 100 to 102 °C.

With `CN1C(=O)C(C(=O)Nc2ccc(Oc3nnc(C(C)(C)C)o3)cc2)C(=O)N(C)C1=O`, the melting point lay in the range of 200 to 203 °C.

`O=C(c1ccc(Oc2ccccc2)cc1)c1ccc(C(=O)c2ccc(Oc3ccccc3)cc2)cc1` returned a melting point of 212 to 214 °C.

For the compound `O=C(NCc1ccccn1)c1ccc(C2=NOC(c3cc(Cl)cc(Cl)c3)(C(F)(F)F)C2)cc1C(F)(F)F` (stereo unspecified), the melting point lay in the range of 69 to 70 °C.

In the case of `COc1nc2ccccc2c(-c2ccccc2)c1C(=O)N(C)Cc1cc(C(F)(F)F)cc(C(F)(F)F)c1`, the melting point was 146 to 147 °C.

As to `Cc1ccccc1-c1ccc(C(=O)N2Cc3ccc(C(=O)NCCc4ccc(Cl)cc4)n3Cc3ccccc32)cc1C`, the melting point fell in the range of 169 to 171 °C.

Regarding `CCOC(=O)/C(=N/OCc1ccccc1)c1ccc(OCCOc2ccc3ccccc3c2)s1`, the melting point fell in the range of 111 to 112 °C.

`CC(C)(C)OC(=O)N1CCC(CCc2c3c(nn2C(C)(C)C)c(=O)[nH]c2ccccc23)CC1` returned a melting point of 223 to 225 °C.

`OCc1cc2ccnc(Cl)c2[nH]1`: the melting point was 185 to 187 °C.

In the case of `COc1cc(/C=C/C(=O)CC(=O)c2ccccc2)ccc1O`, the melting point lay within 159 to 162 °C.

Consider `COc1ccc(N2CCN(c3c(C)c(C)c4c(c3C)C(Nc3ccccc3)C(C)(C)O4)CC2)cc1` (stereo unspecified), for which the melting point fell in the range of 90 to 94 °C.

`O=C(O)CN1C(=O)C(=Cc2ccc(OCc3cccc(C(F)(F)F)c3)c(OCc3ccccc3)c2)SC1=S` had a melting point of 187 to 194 °C.

As to `COC(=O)c1ccc(Cl)cc1NC(=O)CSc1nc2ccccc2s1`, the melting point fell in the range of 117 to 120 °C.

In turn, `Cc1cc(-c2noc(C)c2-c2ccc(S(N)(=O)=O)c(F)c2)ccc1-c1cscn1` yielded a melting point of 159 °C.

Regarding `CCNc1nc(Nc2ccccc2)ncc1C(C)=CC(=O)OCC`, the melting point was in the range of 148 to 150 °C.

On to `CC(=O)Nc1occ(C(C)(C)C)c1C#N`, for which the melting point was determined as 135 °C.

With `O[C@@H](c1c[nH]nc1-c1ccccc1)[C@H](CCN1CCC(O)(c2ccccc2)CC1)c1ccc(Cl)c(Cl)c1` (racemic), the melting point is 133 to 135 °C.

Compound `OC1Cc2ccc(C(F)(F)F)cc2Sc2ccc(F)cc21` (stereo unspecified) showed a melting point of 73 to 75 °C.

For the compound `CC(Cc1c[nH]c2ccccc12)(NC(=O)OC1C2CC3CC(C2)CC1C3)C(=O)NC1(CC(=O)O)CCCCC1` (stereo unspecified), the melting point is 174 °C.

Regarding `CCOC(=O)c1cc(C)cc(-c2ccc(N(C)C)cc2)n1`, the melting point was 143 to 144 °C.

On to `N#Cc1ccc(-c2ccc(C(F)(F)F)cn2)cc1SCC1CC1`, for which the melting point fell in the range of 135 to 136 °C.

For `CCOC(=O)c1cccc(Nc2ncnc3[nH]cc(C(=O)c4ccccc4)c23)c1`, the melting point was in the range of 256 to 258 °C.

In the case of `COc1ccccc1Cn1c(=O)[nH]c2cc(Cl)cc(Cl)c2c1=O`, the melting point lay within 143 to 146 °C.

On to `Cc1ccc(/C=C/[C@@]2(O)C[C@H](O)CC(=O)O2)cc1`, for which the melting point fell in the range of 126 to 127 °C.

In the case of `Nc1ccccc1CN[C@@H](CSCC(=O)O)C(=O)O`, the melting point was found to be 214 °C.

Compound `CN(N)c1ccc(-c2ccc(Cl)cc2)nn1` had a melting point of 170 to 172 °C.

As to `COc1cc(NC(N)=S)cc(OC)c1OC`, the melting point was in the range of 203 to 205 °C.

As for `O=c1c2ccccc2[nH]c2c(OCCCCN(CCCl)CCCl)cccc12`, the melting point came out at 119 °C.

The compound `Cc1nc(-c2ccc(SC(C)C)c([N+](=O)[O-])c2)sc1C(=O)O` displayed a melting point of 233 to 235 °C.

In turn, `CC(=O)c1ccc(C(=O)N2Cc3cccn3Cc3ccccc32)cc1` yielded a melting point of 135 to 137 °C.

`O=C(O)COC1=C(Cc2ccc3c(Cl)cccc3c2)C(=O)CCC1`: the melting point fell in the range of 236 to 238 °C.

`COc1ccc(CNc2nc(CCC(=O)O)nc3sc4ccccc4c23)cc1Cl` showed a melting point of 218 °C.

Turning to `COc1ccc(CN2C(=O)C3CC(c4ccc(N)cc4)(C3)C2=O)cc1`, the melting point was in the range of 147 to 148 °C.

Take `c1ccc(-c2ccc(-c3nc(COc4ccc(CCCn5ccnc5)cc4)co3)o2)cc1`: the melting point fell in the range of 130 to 131 °C.

For `O=C(O)CCCC(=O)c1cc(-c2ccccc2)nc2ccccc12`, the melting point amounted to 136 °C.

Take `O=C(Nc1cc2ncc(CN3CCCC3)cc2cc1F)c1ccc(-c2ccc(OC(F)(F)F)cc2)cc1`: the melting point lay in the range of 184 to 187 °C.

Consider `COC(=O)CCCCCc1nn(-c2ccc(F)cc2)c2c1CCC2`, for which the melting point was in the range of 39 to 40 °C.

In turn, `CC(=O)c1ccc2c(c1)CCc1ccccc1-2` gave a melting point of 58 to 60 °C.

`COc1ccc(NS(=O)(=O)CC(=O)O)cc1[N+](=O)[O-]` yielded a melting point of 154 to 156 °C.

In turn, `CCOC(=O)C1=C(c2ccc(-n3c(C)nc4cnccc43)cc2)NC(=O)NC1c1ccccc1Cl` (stereo unspecified) gave a melting point greater than 300 °C.

`CC(=O)N1CC(C)(C)c2cc3[nH]nnc3cc21` yielded a melting point of 281 to 283 °C.

`O=c1[nH]c2cc(Cl)ccc2n1C1CCN(Cc2cncc(-c3ccccc3)c2)CC1` showed a melting point of 229 to 231 °C.

Turning to `COC(=O)c1c(CC(C)C)nc2ccc(Cl)cc2c1-c1ccccc1`, the melting point was in the range of 111 to 112 °C.

The compound `COc1cc(F)c(F)cc1C=O` showed a melting point of 74 °C.

`C=CCOc1ccccc1OCC(O)CNC(C)C` (stereo unspecified) gave a melting point of 76 to 79 °C.

With `CCOCOCCCOn1cnc2cnc(N)nc21`, the melting point lay in the range of 73 to 74 °C.

For the compound `O=C(CCCN1CCC(c2noc3cc(F)ccc23)CC1)c1cc2c(s1)C(=O)NCCC2`, the melting point fell in the range of 186 to 187 °C.

Take `CN1CCn2nc(Nc3cc(Cl)nn(COCC[Si](C)(C)C)c3=O)cc2C1`: the melting point was 68 to 69 °C.

For the compound `CCCCCCCCCCCCCCCCCCNC(=O)OCC(CNS(=O)(=O)CCCCl)OC(=O)NC` (stereo unspecified), the melting point was 102 to 104 °C.

For `CCc1c(-c2ccncn2)ssc1=S`, the melting point lay within 100 to 102 °C.

Turning to `COc1cc2c3c(c1)nc(SCc1ccncc1)n3CCC2`, the melting point is 99 to 101 °C.

`Cc1c(S(=O)c2cc(Cl)c(Cl)cc2Cl)cc(C(C)(C)C)c(O)c1C(=O)Nc1ccc([N+](=O)[O-])cc1C(F)(F)F` (stereo unspecified) showed a melting point of 234 to 235 °C.

In the case of `NCc1cccc(OCCC2Oc3ccccc3N(Cc3cccc(Cl)c3)C2=O)c1` (stereo unspecified), the melting point fell in the range of 124 to 129 °C.

In the case of `CC1CCc2c(N3CCCCC3)c(Cl)cc3c(=O)c(C(=O)O)cn1c23` (stereo unspecified), the melting point lay within 246 to 248 °C.

Turning to `Cc1nsc(NC(=O)Cc2ccc3oc(CC(C)(C)C)nc3c2)c1Cl`, the melting point lay within 144 to 145 °C.

On to `COC(=O)CCC#Cc1nc(Cl)ccc1N`, for which the melting point lay in the range of 96 to 100 °C.

`N#Cc1cc(OCCOCC2CC2)ccc1OCC(O)CNCCNC(=O)Nc1ccccc1` (stereo unspecified) returned a melting point of 110 to 113 °C.

On to `Nc1cc(-n2cc(C(=O)O)c(=O)c3cc(F)c(N4CC(N)C4)c(Cl)c32)ncc1F`, for which the melting point was 280 °C.

Regarding `Fc1ccccc1N1CCN(CCCCNc2ccc(-c3ccccc3)cn2)CC1`, the melting point stood at 95 °C.

With `O=C1Cc2cc(I)ccc2N1`, the melting point lay in the range of 190 to 192 °C.

For the compound `COc1cc(Br)c(OC(=O)c2ccc(OC)c(C(F)(F)F)c2)c(NC(=O)c2ccc(OC)c(C(F)(F)F)c2)c1`, the melting point lay within 205 to 208 °C.

Compound `O=C1CCCCC(CCc2nc3cc(Br)cnc3[nH]2)N1` (stereo unspecified) came in with a melting point of 245 °C.

`CCCc1c(OCCCOc2ccc(C(=O)O)cc2Br)ccc(C(C)=O)c1OC(=O)CC` registered a melting point of 136 to 137 °C.

`CCCc1c(C(=O)C2CCCCC2)c2ccc(C(N)=O)cc2n1Cc1ccccc1Cl` gave a melting point of 208 to 210 °C.

`CCCN(CCC)C(=O)COc1nc(-c2ccccc2)nc(C)c1Br` gave a melting point of 107 to 108 °C.

The compound `c1cc2c(cc1-c1nc(OCC3CC3)nc3cc4c(cc13)OCO4)OCO2` had a melting point of 175 to 182 °C.

On to `Cc1cc2c(-c3ccccc3)c(CNC(=O)c3cc4ccccc4[nH]3)n(C)c(=O)c2cc1C`, for which the melting point lay within 303 to 305 °C.

Regarding `Nc1cccc(Nc2ncnc3[nH]cc(C(=O)c4ccccc4)c23)n1`, the melting point is greater than 300 °C.

`OC(c1cc(-c2ccc(F)cc2)c(-c2ccc(F)cc2)[nH]1)C(F)(F)F` (stereo unspecified) showed a melting point of 121 to 122 °C.

In the case of `CCOC(=O)C(OC)c1nn(-c2ccc(Cl)cc2)c2c1CCCC2` (stereo unspecified), the melting point is 86 to 87 °C.

In the case of `COC1(OCCc2nc(C(C)C)c(Sc3cc(Cl)cc(Cl)c3)n2C)CCCCCCC1`, the melting point was 54 to 56 °C.

The compound `O=c1oc(-c2ccc(Oc3ccccc3)cc2)cc(O)c1SCCc1ccccc1` registered a melting point of 127 to 128 °C.

In turn, `Nc1nc2ccccc2c2c1ncn2CCCCNC(=O)c1ccc(Oc2ccccc2)cc1` had a melting point of 90.5 to 91.5 °C.

For the origin of these results see a melting point compilation (Tetko et al.; mined from patent text by program, amines drawn as free bases though some values may be those of a salt).
